One assay deals with MOLM13. Briefly: Cell growth inhibition, CellTiter-Glo Luminescent Cell Viability Assay, MOLM13. In kind it is cell-based. To be noted: MOLM13 cells, 4 days. Here is the method: (§1) Cell growth inhibitory activity of representative Compounds of the Disclosure was determined using the CellTiter-Glo® Luminescent Cell Viability Assay. Cells were seeded in 384-well white opaque cell culture plates at a density of 2,000 cells/well with serially diluted compounds and incubated at 37° C. in an atmosphere of 95% air and 5% CO2 for 4 days. Cell viability was determined using the CellTiter-Glo® Luminescent Cell Viability Assay Kit (Promega, Madison, Wis.) according to the manufacture's instruction. Briefly, a volume of CellTiter-Glo® Reagent equal to the volume of cell culture medium was added to each well, and then the plates were incubated at room temperature for 10-20 minutes. The luminescent signal was measured using a Tecan Infinite M1000 multimode microplate reader (Tecan, Morrisville, N.C.). The half maximal inhibitory concentration (IC50) in Table 3 was calculated using the GraphPad Prism 5 software (GraphPad Software, La Jolla, Calif.).
A general note: In ATP-based viability assays light output follows the ATP content of the culture.

For the next assay, the system named is MDA-MB-231. Put plainly: Cell growth inhibition, CellTiter-Glo Luminescent Cell Viability Assay, MDA-MB-231. It counts as cell-based. Particulars: MDA-MB-231 cells, 4 days. Here is the method:
as §1

Several values for one entry are separate records, joined by “and”; a condition that tells them apart may be missing. Identical values can stand only once.

As for `Cc1c(C#Cc2cnn(CCCC(=O)OCCCOc3cccc4c3CN(C3CCC(=O)NC3=O)C4=O)c2)sc2c1C(c1ccc(Cl)cc1)=N[C@@H](C)c1nnc(C)n1-2` (stereo partly drawn) [Cpd. No. 5, 3-((2-(2,6-dioxopiperidin-3-yl)-1-oxoisoindolin-4-yl)oxy)propyl 4-(4-(((S)-4-(4-chlorophenyl)-3,6,9-trimethyl-6H-thieno[3,2-f][1,2,4]triazolo[4,3-a][1,4]diazepin-2-yl)ethynyl)-1H-pyrazol-1-yl)butanoate], the IC50 (usually the midpoint of a concentration-inhibition curve) with MOLM13 (Homo sapiens, MOLM-13, 96 h) came to 0.1 nM; in the assay with MDA-MB-231 (Homo sapiens, MDA-MB-231, 96 h) it was 0.1 nM.
As for `Cc1c(C#Cc2cnn(CCCC(=O)OCCN3CCC(Nc4cccc5c4CN(C4CCC(=O)NC4=O)C5=O)CC3)c2)sc2c1C(c1ccc(Cl)cc1)=N[C@@H](C)c1nnc(C)n1-2` (stereo partly drawn) [Cpd. No. 11, 2-(4-((2-(2,6-dioxopiperidin-3-yl)-1-oxoisoindolin-4-yl)amino)piperidin-1-yl)ethyl 4-(4-(((S)-4-(4-chlorophenyl)-3,6,9-trimethyl-6H-thieno[3,2-f][1,2,4]triazolo[4,3-a][1,4]diazepin-2-yl)ethynyl)-1H-pyrazol-1-yl)butanoate], the IC50 in the assay on MOLM13 (Homo sapiens, MOLM-13, 96 h) came out at 0.06 nM; in the assay with MDA-MB-231 (Homo sapiens, MDA-MB-231, 96 h), 0.1 nM.
The matching figures for `Cc1c(C#Cc2cnn(CCCC(=O)OCCOCCCN3CCC(Nc4cccc5c4CN(C4CCC(=O)NC4=O)C5=O)CC3)c2)sc2c1C(c1ccc(Cl)cc1)=N[C@@H](CC(=O)N1CCN(C)CC1)c1nnc(C)n1-2` (stereo partly drawn) [compound 2, 2-(3-(4-((2-(2,6-dioxopiperidin-3-yl)-1-oxoisoindolin-4-yl)amino)piperidin-1-yl)propoxy)ethyl 4-(4-(((S)-4-(4-chlorophenyl)-3,9-dimethyl-6-(2-(4-methylpiperazin-1-yl)-2-oxoethyl)-6H-thieno[3,2-f][1,2,4]triazolo[4,3-a][1,4]diazepin-2-yl)ethynyl)-1H-pyrazol-1-yl)butanoate]: 7.5 nM and 19.4 nM.
For the compound `Cc1c(C#Cc2cnn(CC(=O)OCC#Cc3cccc4c3CN(C3CCC(=O)NC3=O)C4=O)c2)sc2c1C(c1ccc(Cl)cc1)=N[C@@H](C)c1nnc(C)n1-2` (stereo partly drawn) [compound 3, 3-(2-(2,6-dioxopiperidin-3-yl)-1-oxoisoindolin-4-yl)prop-2-yn-1-yl 2-(4-(((S)-4-(4-chlorophenyl)-3,6,9-trimethyl-6H-thieno[3,2-f][1,2,4]triazolo[4,3-a][1,4]diazepin-2-yl)ethynyl)-1H-pyrazol-1-yl)acetate], the IC50 in the assay on MOLM13 amounted to 1.8 nM; in the assay with MDA-MB-231, 2.1 nM.
`Cc1c(C#Cc2cnn(CCCC(=O)OCCOCCOCCOCC#Cc3cccc4c3CN(C3CCC(=O)NC3=O)C4=O)c2)sc2c1C(c1ccc(Cl)cc1)=N[C@@H](CC(=O)N1CCN(C)CC1)c1nnc(C)n1-2` (stereo partly drawn) [compound 6, 2-(2-(2-((3-(2-(2,6-dioxopiperidin-3-yl)-1-oxoisoindolin-4-yl)prop-2-yn-1-yl)oxy)ethoxy)ethoxy)ethyl 4-(4-(((S)-4-(4-chlorophenyl)-3,9-dimethyl-6-(2-(4-methylpiperazin-1-yl)-2-oxoethyl)-6H-thieno[3,2-f][1,2,4]triazolo[4,3-a][1,4]diazepin-2-yl)ethynyl)-1H-pyrazol-1-yl)butanoate]: the IC50 in the assay on MOLM13 (Homo sapiens, MOLM-13, 96 h) worked out at 2.8 nM; in the assay on MDA-MB-231 (Homo sapiens, MDA-MB-231, 96 h), 32 nM.
The like results for `Cc1c(C#Cc2cnn(CCCC(=O)OCCCOCCN3CCC(Nc4cccc5c4CN(C4CCC(=O)NC4=O)C5=O)CC3)c2)sc2c1C(c1ccc(Cl)cc1)=N[C@@H](CC(=O)N1CCN(C)CC1)c1nnc(C)n1-2` (stereo partly drawn) [compound 7, 3-(2-(4-((2-(2,6-dioxopiperidin-3-yl)-1-oxoisoindolin-4-yl)amino)piperidin-1-yl)ethoxy)propyl 4-(4-(((S)-4-(4-chlorophenyl)-3,9-dimethyl-6-(2-(4-methylpiperazin-1-yl)-2-oxoethyl)-6H-thieno[3,2-f][1,2,4]triazolo[4,3-a][1,4]diazepin-2-yl)ethynyl)-1H-pyrazol-1-yl)butanoate] were, in that order, 9.6 nM and 4.5 nM.
The matching figures for `Cc1c(C#Cc2cnn(CCCC(=O)OCCCOCCN3CCC(Nc4cccc5c4CN(C4CCC(=O)NC4=O)C5=O)CC3)c2)sc2c1C(c1ccc(Cl)cc1)=N[C@@H](C)c1nnc(C)n1-2` (stereo partly drawn) [compound 8, 3-(2-(4-((2-(2,6-dioxopiperidin-3-yl)-1-oxoisoindolin-4-yl)amino)piperidin-1-yl)ethoxy)propyl 4-(4-(((S)-4-(4-chlorophenyl)-3,6,9-trimethyl-6H-thieno[3,2-f][1,2,4]triazolo[4,3-a][1,4]diazepin-2-yl)ethynyl)-1H-pyrazol-1-yl)butanoate]: 1.1 nM and 1.3 nM.
The matching figures for `Cc1c(C#Cc2cnn(CCCC(=O)OCCN3CCC(Nc4cccc5c4CN(C4CCC(=O)NC4=O)C5=O)CC3)c2)sc2c1C(c1ccc(Cl)cc1)=N[C@@H](CC(=O)N1CCN(C)CC1)c1nnc(C)n1-2` (stereo partly drawn) [compound 12, 2-(4-((2-(2,6-dioxopiperidin-3-yl)-1-oxoisoindolin-4-yl)amino)piperidin-1-yl)ethyl 4-(4-(((S)-4-(4-chlorophenyl)-3,9-dimethyl-6-(2-(4-methylpiperazin-1-yl)-2-oxoethyl)-6H-thieno[3,2-f][1,2,4]triazolo[4,3-a][1,4]diazepin-2-yl)ethynyl)-1H-pyrazol-1-yl)butanoate]: 0.05 nM and 0.08 nM.
On to `Cc1nnc2n1-c1sc(C#Cc3cnn(CCCOC(=O)CCc4cccc5c4CN(C4CCC(=O)NC4=O)C5=O)c3)c(Cc3ccccc3)c1COC2` (centres unmarked) [compound 17, 3-(4-((3-benzyl-9-methyl-4H,6H-thieno[2,3-e][1,2,4]triazolo[3,4-c][1,4]oxazepin-2-yl)ethynyl)-1H-pyrazol-1-yl)propyl 3-(2-(2,6-dioxopiperidin-3-yl)-1-oxoisoindolin-4-yl)propanoate], for which the half-maximal inhibitory concentration (IC50) with MOLM13 (Homo sapiens, MOLM-13, 96 h) came out at 1.8 nM; in the assay on MDA-MB-231 (Homo sapiens, MDA-MB-231, 96 h), 39 nM.
As for `Cc1nnc2n1-c1sc(C#Cc3cnn(CCCC(=O)OCCOCCOCCOCCOc4cccc5c4CN(C4CCC(=O)NC4=O)C5=O)c3)c(Cc3ccccc3)c1COC2` (centres unmarked) [compound 22, 2-(2-(2-(2-((2-(2,6-dioxopiperidin-3-yl)-1-oxoisoindolin-4-yl)oxy)ethoxy)ethoxy)ethoxy)ethyl 4-(4-((3-benzyl-9-methyl-4H,6H-thieno[2,3-e][1,2,4]triazolo[3,4-c][1,4]oxazepin-2-yl)ethynyl)-1H-pyrazol-1-yl)butanoate], the IC50 with MOLM13 (Homo sapiens, MOLM-13, 96 h) is 5.2 nM; with MDA-MB-231 (Homo sapiens, MDA-MB-231, 96 h), 185 nM.
The matching figures for `Cc1nnc2n1-c1sc(C#Cc3cnn(CCCC(=O)OCOCCCOc4cccc5c4CN(C4CCC(=O)NC4=O)C5=O)c3)c(Cc3ccccc3)c1COC2` (centres unmarked) [compound 23, (3-((2-(2,6-dioxopiperidin-3-yl)-1-oxoisoindolin-4-yl)oxy)propoxy)methyl 4-(4-((3-benzyl-9-methyl-4H,6H-thieno[2,3-e][1,2,4]triazolo[3,4-c][1,4]oxazepin-2-yl)ethynyl)-1H-pyrazol-1-yl)butanoate]: 2.1 nM and 77.9 nM.
The like results for `Cc1nnc2n1-c1sc(C#Cc3cnn(CCCC(=O)OCCCN4CCC(Nc5cccc6c5CN(C5CCC(=O)NC5=O)C6=O)CC4)c3)c(Cc3ccccc3)c1COC2` (centres unmarked) [compound 25, 3-(4-((2-(2,6-dioxopiperidin-3-yl)-1-oxoisoindolin-4-yl)amino)piperidin-1-yl)propyl 4-(4-((3-benzyl-9-methyl-4H,6H-thieno[2,3-e][1,2,4]triazolo[3,4-c][1,4]oxazepin-2-yl)ethynyl)-1H-pyrazol-1-yl)butanoate] were, in that order, 2.4 nM and 7.3 nM.
The like results for `Cc1nnc2n1-c1sc(C#Cc3ccn(CCC(=O)OCCC#Cc4cccc5c4CN(C4CCC(=O)NC4=O)C5=O)n3)c(Cc3ccccc3)c1COC2` (centres unmarked) [compound 28, 4-(2-(2,6-dioxopiperidin-3-yl)-1-oxoisoindolin-4-yl)but-3-yn-1-yl 3-(3-((3-benzyl-9-methyl-4H,6H-thieno[2,3-e][1,2,4]triazolo[3,4-c][1,4]oxazepin-2-yl)ethynyl)-1H-pyrazol-1-yl)propanoate] were, in that order, 0.2 nM and 2 nM.
Regarding `Cc1nnc2n1-c1sc(C#Cc3ccn(CCC(=O)OCCCCc4cccc5c4CN(C4CCC(=O)NC4=O)C5=O)n3)c(Cc3ccccc3)c1COC2` (centres unmarked) [compound 29, 4-(2-(2,6-dioxopiperidin-3-yl)-1-oxoisoindolin-4-yl)butyl 3-(3-((3-benzyl-9-methyl-4H,6H-thieno[2,3-e][1,2,4]triazolo[3,4-c][1,4]oxazepin-2-yl)ethynyl)-1H-pyrazol-1-yl)propanoate], the IC50 in the assay with MOLM13 (Homo sapiens, MOLM-13, 96 h) was determined as 0.3 nM; in the assay with MDA-MB-231 (Homo sapiens, MDA-MB-231, 96 h) it was 9.8 nM.
The like results for `Cc1nnc2n1-c1sc(C#Cc3ccn(CCC(=O)OCCCNc4cccc5c4CN(C4CCC(=O)NC4=O)C5=O)n3)c(Cc3ccccc3)c1COC2` (centres unmarked) [compound 30, 3-((2-(2,6-dioxopiperidin-3-yl)-1-oxoisoindolin-4-yl)amino)propyl 3-(3-((3-benzyl-9-methyl-4H,6H-thieno[2,3-e][1,2,4]triazolo[3,4-c][1,4]oxazepin-2-yl)ethynyl)-1H-pyrazol-1-yl)propanoate] were, in that order, 0.6 nM and 148 nM.
As to `Cc1nnc2n1-c1sc(C#Cc3cnn(CCOC(=O)CCC#Cc4cccc5c4CN(C4CCC(=O)NC4=O)C5=O)c3)c(Cc3ccccc3)c1COC2` (centres unmarked) [compound 31, 2-(4-((3-benzyl-9-methyl-4H,6H-thieno[2,3-e][1,2,4]triazolo[3,4-c][1,4]oxazepin-2-yl)ethynyl)-1H-pyrazol-1-yl)ethyl 5-(2-(2,6-dioxopiperidin-3-yl)-1-oxoisoindolin-4-yl)pent-4-ynoate], the IC50 was 1.3 nM with MOLM13 (Homo sapiens, MOLM-13, 96 h); 9.1 nM and 5.6 nM with MDA-MB-231.

The record behind these values is patent US11267822B2, “BET bromodomain protein degraders with cleavable linkers” (THE REGENTS OF THE UNIVERSITY OF MICHIGAN, priority 2017, dated 2022).
